Laboratory results published in patent US20060148763A1, “Compounds and methods for regulating triglyceride levels” (priority 2005, published 2006).

Columns and labels:
Type in all cases: in vivo, human
[1] = test system: total serum cholesterol (TC); test: Phase II cross-over study of P5P alone and with lisinopril in hypertensive type 2 diabetic patients: total cholesterol; settings: for reduction in serum TC levels (placebo corrected): patients having elevated TC levels (>5.15 mmol/L)
Procedure: (§1) Objective—A phase II clinical study was conducted to determine the effects of pyridoxal-5′-phosphate in combination with lisinopril on blood pressure and metabolic function in hypertensive patients with type 2 diabetes.
(§2) Summary of Study Design—The phase II study was a randomized, parallel group, cross-over, double-blinded to study medication, placebo-controlled comparison of P5P BID at total daily doses of 100, 300, or 1000 mg alone and in combination with 20 mg lisinopril given once daily (QD). In order to protect against antihypertensive and metabolic carry-over effects of lisinopril, all patients were randomized in 2 different treatment sequences. Patients randomized in the first treatment sequence receive an 8-week treatment with lisinopril 20 mg and P5P (or placebo) and then an 8-week treatment with P5P alone (or placebo). Patients randomized in the second treatment sequence receive an 8-week treatment with P5P alone and then an 8-week treatment with lisinopril 20 mg and P5P (or placebo). In each treatment sequence, all patients were randomized to P5P at the different prespecified dosages.
(§3) Mean trough sitting and standing BP were measured at each visit. Twenty-four hour ambulatory BP monitoring (ABPM) were performed at Visit 2 prior to randomization (end of washout period) and after week 8 (Visit 5) and week 16 (Visit 8) weeks of active therapy. Laboratory tests were performed at screening (Visit 1), prior to randomization (Visit 2), at week 2 (Visit 3a), week 8 (Visit 5), week 10 (Visit 6a), and at week 16 (Visit 8).
(§4) Treatment Plan—Two to Four-week Washout (Baseline) Period. Patients were instructed on the proper procedure for discontinuing their current antihypertensive medications (discontinuation or tapering) according to the manufacturer's label specifications. If a patient's current antihypertensive treatment needed to be tapered earlier, the Investigator complied with the corresponding timelines before randomization. With the exception of any tapering off of prior therapy, if any, no other anti-hypertensive medication was given to the patient during the washout period. Patients continued any existing diabetic treatment with sulfonylureas (tolbutamide, tolazamide, acetohexamide, chlorpropamide and second generation glyburide, glipizide, glimepiride), D-Phenylalanine derivatives, metformin, thiazolidinediones, acarbose, miglitol, and/or insulin throughout the study. Patients received placebo to be taken twice daily during the washout period. Standard diabetic medication was maintained throughout study. The duration of the washout period was two to four weeks, at the discretion of the Investigator taking into consideration whether the patient's blood pressure had stabilized following removal of any prior antihypertensive medication.
(§5) Active (Study) Medication Period: After the washout period, eligible patients were randomized to one of the 2 following sequences of treatment for 16 weeks.
(§6) Week 0 to 8: Treatment period (P5P alone (or placebo) or P5P (or placebo) and Lisinopril)
(§7) Week 8 to 16: Treatment period (P5P alone (or placebo) or P5P (or placebo) and Lisinopril)
(§8) Study Groups—The patients were randomized into one of […] groups:
(§9) Sequence 1 P5P 300 mg and then P5P 300 mg+Lisinopril 20 mg
(§10) Sequence 2 P5P 300 mg+Lisinopril 20 mg and then P5P 300 mg alone
(§11) All medications were taken at the same time each day during washout and treatment periods:
(§12) Other Efficacy Endpoints—Analytical efficacy measurements, including markers of metabolic function (insulinemia, fasting serum glucose, glycated hemoglobin, LDL, HDL, non-HDL and triglycerides), endothelial function (ICAM-1, VCAM-1, E-selectin and albuminuria), kidney function (creatinine, glomular filtration rate), CRP and homocysteine, were conducted on blood samples taken on Visits 2, 5 and 8. Samples were sent to a central laboratory for analysis.

Non-HDL = test: Phase II cross-over study of P5P alone and with lisinopril in hypertensive type 2 diabetic patients: non-HDL
Procedure: as §1, §2, §3, §4, §5, §6, §7, §8, §9, §10, §11, §12

serum LDL = test: Phase II cross-over study of P5P alone and with lisinopril in hypertensive type 2 diabetic patients: LDL; settings: for LDL change, 16 wk vs. baseline (b): LDL non-stratified data; for reduction in serum LDL levels: patients having elevated LDL levels (>2.59 mmol/L)
Procedure: as §1, §2, §3, §4, §5, §6, §7, §8, §9, §10, §11, §12

serum triglyceride (TG) = test: Phase II cross-over study of P5P alone and with lisinopril in hypertensive type 2 diabetic patients: triglycerides; settings: for TG change, 16 wk vs. baseline (b): Lisinopril/P5P therapy, patients with TG ≧1.7 mmol/L; for reduction in serum TG levels vs. baseline: patients with elevated TG (>1.7 mmol/L) at baseline
Procedure: as §1, §2, §3
as §4, with “medication. […]” for “medication.”

[2] = P5P 300 mg, patients with TC >5.18 mmol/L
[3] = P5P 300 mg, patients with Non HDL >3.34 mmol/L
[4] = P5P 300 mg, patients with LDL >2.59 mmol/L

Cc1ncc(COP(=O)(O)O)c(C=O)c1O [P5P, pyridoxal-5′-phosphate]
TC change vs baseline (b) ([1]; P5P 300 mg, TC non-stratified): −0.18 mmol/L (p = 0.273)b
reduction in serum TC levels (placebo corrected) ([1]; P5P 300 mg): about 0.91 mmol/L
TC change [1, 2]: −0.91 mmol/L (p = 0.02)
TC reduction vs baseline (b) [1, 2]: (15.7%)b
TC change vs baseline (b) ([1]; P5P 1000 mg, TC non-stratified): −0.29 mmol/L (p = 0.075)b
reduction in serum TC levels (placebo corrected) ([1]; P5P 1000 mg): about 1.03 mmol/L
TC change vs baseline (b) ([1]; P5P 1000 mg, patients with TC >5.18 mmol/L): −1.03 mmol/L (p = 0.001)b
Non-HDL change vs baseline (b) (Non-HDL; P5P 300 mg, non-stratified, calculated number, not measured in plasma): −0.21 mmol/L (p=)b
Non-HDL change (Non-HDL; [3]): −0.68 mmol/L (p = 0.029)
Non-HDL reduction vs baseline (b) (Non-HDL; [3]): (15%)b
reduction in non-HDL compared to baseline (Non-HDL; P5P 300 mg, patients with non-HDL >3.34 mmol/L at baseline): 0.68 mmol/L
Non-HDL change vs baseline (b) (Non-HDL; P5P 1000 mg, non-stratified, calculated number, not measured in plasma): −0.26 mmol/L (p = 0.089)b
Non-HDL change vs baseline (b) (Non-HDL; P5P 1000 mg, patients with Non HDL >3.34 mmol/L): −0.71 mmol/L (p = 0.007)b
decrease in non-HDL vs. baseline (Non-HDL; P5P 1000 mg, patients with non-HDL. 3.34 mmol/L): 0.71 mmol/L
LDL change, 16 wk vs. baseline (b) (serum LDL; P5P 300 mg): −0.15 mmol/L (p = 0.194)b
reduction in serum LDL levels (serum LDL; P5P 300 mg): about 0.41 mmol/L
LDL change (serum LDL; [4]): −0.41 mmol/L (p = 0.04)
LDL reduction (serum LDL; [4]): (12% reduction)
LDL change, 16 wk vs. baseline (b) (serum LDL; P5P 1000 mg): −0.15 mmol/L (p = 0.197)b
reduction in serum LDL levels (serum LDL; P5P 1000 mg): about 0.53 mmol/L
LDL change (serum LDL; P5P 1000 mg, patients with LDL >2.59 mmol/L): −0.53 mmol/L (p = 0.075)
average reduction in serum LDL levels (placebo corrected) (serum LDL; patients taking 300 mg or 1000 mg of P5P): 0.27 mmol/L
TG change, 16 wk vs. baseline (b) (serum triglyceride (TG); P5P 300 mg daily (BID)): −0.70 mmol/L (p = 0.04)b
reduction in serum TG levels vs. baseline (serum triglyceride (TG); P5P 300 mg): about 0.70 mmol/L
TG change, 16 wk vs. baseline (b) (serum triglyceride (TG); P5P 1000 mg daily (BID)): −0.56 mmol/L (p = 0.12)b
reduction in serum TG levels vs. baseline (serum triglyceride (TG); P5P 1000 mg): about 0.56 mmol/L
